Results published in US9809587B2, “Pesticidally active heterocyclic derivatives with sulphur containing substituents” (Syngenta Participations AG, priority 2014, dated 2017).

What was measured:
Assay type in all cases: in vivo
[1] = system: Spodoptera littoralis (Egyqptian Cotton Leaf Worm); assay: Spodoptera littoralis (Egyptian cotton leaf worm), sprayed cotton leaf discs; settings: foliar, 72 h, application rate of 200 ppm, L1 larvae on cotton leaf discs, 3 days after infestation
Procedure: Example B7: Spodoptera littoralis (Egyqptian Cotton Leaf Worm)
Cotton leaf discs were placed on agar in 24-well microtiter plates and sprayed with aqueous test solutions prepared from 10′000 ppm DMSO stock solutions. After drying the leaf discs were infested with five L1 larvae. The samples were assessed for mortality, anti-feedant effect, and growth inhibition in comparison to untreated samples 3 days after infestation. Control of Spodoptera littoralis by a test sample is when at least one of mortality, anti-feedant effect, and growth inhibition is higher than the untreated sample.

[2] = system: Plutella xylostella (Diamond Back Moth); assay: Plutella xylostella (diamond back moth), treated artificial diet; settings: 120 h, application rate of 200 ppm, L2 larvae on artificial diet, 5 days after infestation, read-out: effect in at least one of the two categories (mortality or growth inhibition)
Procedure: Example B6: Plutella xylostella (Diamond Back Moth)
(§1) 24-well microtiter plates with artificial diet were treated with aqueous test solutions prepared from 10′000 ppm DMSO stock solutions by pipetting. After drying, the plates were infested with L2 larvae (10 to 15 per well). The samples were assessed for mortality and growth inhibition in comparison to untreated samples 5 days after infestation.
The following compounds gave an effect of at least 80% in at least one of the two categories (mortality or growth inhibition) at an application rate of 200 ppm: […]

[3] = system: Diabrotica balteata (Corn Root Worm); assay: Diabrotica balteata (corn root worm), sprayed maize sprouts; settings: 96 h, application rate of 200 ppm, L2 larvae on maize sprouts, 4 days after infestation
Procedure: Example B2: Diabrotica balteata (Corn Root Worm)
as §1, with “Maize sprouts, placed on an agar layer in 24-well” for “24-well”, “plates” for “plates with artificial diet”, “spraying.” for “pipetting.”, “(6” for “(10”, “10” for “15”, “4” for “5”

[4] = system: Spodoptera littoralis (Egyqptian Cotton Leaf Worm); assay: Spodoptera littoralis (Egyptian cotton leaf worm), compound in agar taken up by lettuce roots; settings: 144 h, test rate of 12.5 ppm, uptake by lettuce roots from agar, 6 days after infestation, read-out: effect in at least one of the three categories (mortality, anti-feedancy, or growth inhibition)
Source text: Example B8: Spodoptera littoralis (Egyqptian Cotton Leaf Worm)
Test compounds were applied by pipette from 10′000 ppm DMSO stock solutions into 24-well plates and mixed with agar. Lettuce seeds were placed on the agar and the multi well plate was closed by another plate which contains also agar. After 7 days the roots have absorbed the compound and the lettuce has grown into the lid plate. The lettuce leafs were now cut off into the lid plate. Spodoptera eggs were pipetted through a plastic stencil on a humid gel blotting paper and the plate closed with it. The samples were assessed for mortality, anti-feedant effect and growth inhibition in comparison to untreated samples 6 days after infestation.
The following compounds gave an effect of at least 80% in at least one of the three categories (mortality, anti-feedancy, or growth inhibition) at a test rate of 12.5 ppm: […]

[5] = system: Myzus persicae (Green Peach Aphid); assay: Myzus persicae (green peach aphid), sprayed sunflower leaf discs; settings: foliar, 144 h, application rate of 200 ppm, mixed ages on sunflower leaf discs, 6 days after infestation
Procedure: Example B4: Myzus persicae (Green Peach Aphid)
Sunflower leaf discs were placed on agar in a 24-well microtiter plate and sprayed with aqueous test solutions prepared from 10′000 ppm DMSO stock solutions. After drying, the leaf discs were infested with an aphid population of mixed ages. The samples were assessed for mortality 6 days after infestation.

[6] = system: Euschistus heros (Neotropical Brown Stink Bug); assay: Euschistus heros (neotropical brown stink bug), sprayed soybean leaf; settings: 120 h, application rate of 200 ppm, N-2 nymphs on soybean leaf, 5 days after infestation
Procedure: Example B3: Euschistus heros (Neotropical Brown Stink Bug)
Soybean leaf on agar in 24-well microtiter plates were sprayed with aqueous test solutions prepared from 10′000 ppm DMSO stock solutions. After drying the leaf were infested with N-2 nymphs. The samples were assessed for mortality in comparison to untreated samples 5 days after infestation.

[7] = system: Bemisia tabaci (Cotton White Fly); assay: Bemisia tabaci (cotton white fly), sprayed cotton leaf discs; settings: foliar, 144 h, application rate of 200 ppm, adult white flies on cotton leaf discs, 6 days after incubation
Procedure: Example B1: Bemisia tabaci (Cotton White Fly)
Cotton leaf discs were placed on agar in 24-well microtiter plates and sprayed with aqueous test solutions prepared from 10′000 ppm DMSO stock solutions. After drying the leaf discs were infested with adult white flies. The samples were checked for mortality 6 days after incubation.

[8] = system: Myzus persicae (Green Peach Aphid); assay: Myzus persicae (green peach aphid), roots of pea seedlings in test solution; settings: 144 h, test rate of 24 ppm, roots of infested pea seedlings in test solution, 6 days
Procedure: Example B5: Myzus persicae (Green Peach Aphid)
Roots of pea seedlings infested with an aphid population of mixed ages were placed directly in the aqueous test solutions prepared from 10′000 DMSO stock solutions. The samples were assessed for mortality 6 days after placing seedlings in test solutions.

CCS(=O)(=O)c1cc(-c2ccsc2)cnc1-c1nc2cc(C(F)(F)F)ncc2n1C [Compound P82]
≥ 80%: percent control (mortality, anti-feedant effect or growth inhibition) at 200 ppm [1] | percent effect (mortality or growth inhibition) at 200 ppm [2] | mortality at 200 ppm [3] | percent control (mortality, anti-feedancy or growth inhibition) at 12.5 ppm [4] | mortality at 200 ppm [5]

CCS(=O)(=O)c1cc(-c2ccnc(Cl)n2)cnc1-c1nc2cc(C(F)(F)F)ncc2n1C [Compound P105]
≥ 80%: percent control (mortality, anti-feedant effect or growth inhibition) at 200 ppm [1] | percent effect (mortality or growth inhibition) at 200 ppm [2] | mortality at 200 ppm [3] | percent control (mortality, anti-feedancy or growth inhibition) at 12.5 ppm [4] | mortality at 200 ppm [5]

CCS(=O)(=O)c1cc(-c2ncccc2C)cnc1-c1nc2cc(C(F)(F)F)ncc2n1C [Compound P50]
≥ 80%: percent control (mortality, anti-feedant effect or growth inhibition) at 200 ppm [1] | percent effect (mortality or growth inhibition) at 200 ppm [2] | mortality at 200 ppm [3] | mortality at 200 ppm [6] | percent control (mortality, anti-feedancy or growth inhibition) at 12.5 ppm [4] | mortality at 200 ppm [5]

CCS(=O)(=O)c1cc(-c2cnc(Cl)nc2)cnc1-c1nc2cc(C(F)(F)F)ncc2n1C [Compound P10]
≥ 80%: mortality at 200 ppm [7]

CCS(=O)(=O)c1cc(-c2cncc(C)c2)cnc1-c1nc2cc(C(F)(F)F)ncc2n1C [Compound P45]
≥ 80%: percent control (mortality, anti-feedant effect or growth inhibition) at 200 ppm [1] | percent effect (mortality or growth inhibition) at 200 ppm [2] | mortality at 200 ppm [3] | mortality at 200 ppm [7] | mortality at 200 ppm [6] | mortality at 200 ppm [5]

CCS(=O)(=O)c1cc(-c2cccnc2)cnc1-c1nc2cc(C(F)(F)F)ncc2n1C [Compound P80]
≥ 80%: percent control (mortality, anti-feedant effect or growth inhibition) at 200 ppm [1] | percent effect (mortality or growth inhibition) at 200 ppm [2] | mortality at 200 ppm [7] | mortality at 200 ppm [5]

CCS(=O)(=O)c1cc(-n2cnc(C(F)(F)F)c2)cnc1-c1nc2cc(C(F)(F)F)ncc2n1C [Compound P87]
≥ 80%: mortality at 200 ppm [3] | mortality at 24 ppm [8] | mortality at 200 ppm [5]

CCS(=O)(=O)c1cc(-c2cccc3c2OC(F)(F)O3)cnc1-c1nc2cc(C(F)(F)F)ncc2n1C [Compound P72]
≥ 80%: percent control (mortality, anti-feedant effect or growth inhibition) at 200 ppm [1] | percent effect (mortality or growth inhibition) at 200 ppm [2] | mortality at 200 ppm [3] | mortality at 200 ppm [6] | percent control (mortality, anti-feedancy or growth inhibition) at 12.5 ppm [4] | mortality at 200 ppm [5]

CCS(=O)(=O)c1cc(-c2ncccc2NC(=O)C(F)(F)F)cnc1-c1nc2cc(C(F)(F)F)ncc2n1C [Compound P49]
≥ 80%: mortality at 24 ppm [8] | mortality at 200 ppm [6] | mortality at 200 ppm [5]

CCS(=O)(=O)c1cc(-c2ncc(C(F)(F)F)cc2F)cnc1-c1nc2cc(C(F)(F)F)ncc2n1C [Compound P54]
≥ 80%: percent control (mortality, anti-feedant effect or growth inhibition) at 200 ppm [1] | percent effect (mortality or growth inhibition) at 200 ppm [2] | mortality at 200 ppm [3] | mortality at 200 ppm [6] | percent control (mortality, anti-feedancy or growth inhibition) at 12.5 ppm [4] | mortality at 200 ppm [5]

CCS(=O)(=O)c1cc(-c2ncccc2C(F)(F)F)cnc1-c1nc2cc(C(F)(F)F)ncc2n1C [Compound P52]
≥ 80%: percent control (mortality, anti-feedant effect or growth inhibition) at 200 ppm [1] | percent effect (mortality or growth inhibition) at 200 ppm [2] | mortality at 200 ppm [3] | mortality at 200 ppm [6] | percent control (mortality, anti-feedancy or growth inhibition) at 12.5 ppm [4] | mortality at 200 ppm [5]

CCS(=O)(=O)c1cc(-c2ccnc(C(F)(F)F)c2)cnc1-c1nc2cc(C(F)(F)F)ncc2n1C [Compound P46]
≥ 80%: percent control (mortality, anti-feedant effect or growth inhibition) at 200 ppm [1] | percent effect (mortality or growth inhibition) at 200 ppm [2] | mortality at 200 ppm [3] | mortality at 200 ppm [7] | mortality at 200 ppm [6] | percent control (mortality, anti-feedancy or growth inhibition) at 12.5 ppm [4] | mortality at 200 ppm [5]

CCS(=O)(=O)c1cc(-c2cncc(C(F)(F)F)c2)cnc1-c1nc2cc(C(F)(F)F)ncc2n1C [Compound P66]
≥ 80%: percent control (mortality, anti-feedant effect or growth inhibition) at 200 ppm [1] | percent effect (mortality or growth inhibition) at 200 ppm [2] | mortality at 200 ppm [3] | mortality at 200 ppm [7] | mortality at 200 ppm [6] | mortality at 200 ppm [5]

CCS(=O)(=O)c1cc(-c2nccc(C)n2)cnc1-c1nc2cc(C(F)(F)F)ncc2n1C [Compound P103]
≥ 80%: percent control (mortality, anti-feedant effect or growth inhibition) at 200 ppm [1] | percent effect (mortality or growth inhibition) at 200 ppm [2] | mortality at 200 ppm [3] | mortality at 200 ppm [7] | mortality at 200 ppm [6] | percent control (mortality, anti-feedancy or growth inhibition) at 12.5 ppm [4] | mortality at 200 ppm [5]

CCS(=O)(=O)c1cc(-c2ccnc(Cl)c2)cnc1-c1nc2cc(C(F)(F)F)ncc2n1C [Compound P77]
≥ 80%: percent control (mortality, anti-feedant effect or growth inhibition) at 200 ppm [1] | percent effect (mortality or growth inhibition) at 200 ppm [2] | mortality at 200 ppm [3] | mortality at 200 ppm [7] | mortality at 200 ppm [6] | percent control (mortality, anti-feedancy or growth inhibition) at 12.5 ppm [4] | mortality at 200 ppm [5]

CCS(=O)(=O)c1cc(-c2cccc(Cl)n2)cnc1-c1nc2cc(C(F)(F)F)ncc2n1C [Compound P59]
≥ 80%: percent control (mortality, anti-feedant effect or growth inhibition) at 200 ppm [1] | percent effect (mortality or growth inhibition) at 200 ppm [2] | mortality at 200 ppm [3] | mortality at 200 ppm [7] | mortality at 200 ppm [6] | percent control (mortality, anti-feedancy or growth inhibition) at 12.5 ppm [4] | mortality at 200 ppm [5]

CCS(=O)(=O)c1cc(-c2ccncc2)cnc1-c1nc2cc(C(F)(F)F)ncc2n1C [Compound P81]
≥ 80%: percent effect (mortality or growth inhibition) at 200 ppm [2] | mortality at 200 ppm [7] | mortality at 200 ppm [6] | mortality at 200 ppm [5]

CCS(=O)(=O)c1cc(-c2cc(C)ccn2)cnc1-c1nc2cc(C(F)(F)F)ncc2n1C [Compound P57]
≥ 80%: percent control (mortality, anti-feedant effect or growth inhibition) at 200 ppm [1] | percent effect (mortality or growth inhibition) at 200 ppm [2] | mortality at 200 ppm [6] | percent control (mortality, anti-feedancy or growth inhibition) at 12.5 ppm [4] | mortality at 200 ppm [5]

CCS(=O)(=O)c1cc(-c2ncccc2OC(F)F)cnc1-c1nc2cc(C(F)(F)F)ncc2n1C [Compound P43]
≥ 80%: percent control (mortality, anti-feedant effect or growth inhibition) at 200 ppm [1] | percent effect (mortality or growth inhibition) at 200 ppm [2] | mortality at 200 ppm [3] | mortality at 200 ppm [6] | mortality at 200 ppm [5]

CCS(=O)(=O)c1cc(-c2ccc(C)cn2)cnc1-c1nc2cc(C(F)(F)F)ncc2n1C [Compound P55]
≥ 80%: percent control (mortality, anti-feedant effect or growth inhibition) at 200 ppm [1] | percent effect (mortality or growth inhibition) at 200 ppm [2] | mortality at 200 ppm [3] | mortality at 200 ppm [6] | mortality at 200 ppm [5]

CCS(=O)(=O)c1cc(-c2ncc(Cl)cc2Cl)cnc1-c1nc2cc(C(F)(F)F)ncc2n1C [Compound P44]
≥ 80%: percent control (mortality, anti-feedant effect or growth inhibition) at 200 ppm [1] | percent effect (mortality or growth inhibition) at 200 ppm [2] | mortality at 200 ppm [3] | mortality at 200 ppm [6] | percent control (mortality, anti-feedancy or growth inhibition) at 12.5 ppm [4] | mortality at 200 ppm [5]

CCS(=O)(=O)c1cc(-c2cccc(OC)n2)cnc1-c1nc2cc(C(F)(F)F)ncc2n1C [Compound P95]
≥ 80%: percent control (mortality, anti-feedant effect or growth inhibition) at 200 ppm [1] | percent effect (mortality or growth inhibition) at 200 ppm [2] | mortality at 200 ppm [3] | mortality at 200 ppm [6] | mortality at 200 ppm [5]
